Measurements published in EP0182135A2, “Novel bis-(substituted amino) anthraquinones” (AMERICAN CYANAMID COMPANY, priority 1984, dated 1986).

What was measured:
[1] = test system: lymphocytic leukemia P388; experiment: Lymphocytic Leukemia P388 Test; type: in vivo, DBA/2 mice
Experimental: Lymphocytic Leukemia P388 Test
The animals used were DBA/2 mice all of one sex, weighing a minimum of 17 g and all within a 3 g weight range. There were 5 or 6 animals per test group. The tumor transplant was by intraperitoneal injection of 0.1 ml of dilute ascitic fluid containing 10^6 cells of lymphocytic leukemia P388. The test compounds were administered intraperitoneally on days 1, 5 and 9 (relative to tumor inoculation) at various doses. The animals were weighed and survivors were recorded on a regular basis for 30 days. The median survival time and the ratio of survival time for treated (T)/control (C) animals were calculated. The positive control compound was 1,4-dihydroxy-5,8-bis--[ [2-(2-hydroxyethylamino)ethyl ]amino]anthraquinone, dihydrochloride (U.S. Patent 4,197,249) given at the indicated doses by injection.

[2] = test system: melanotic melanoma B16; experiment: Melanotic Melanoma B16 Test; type: in vivo, C57BC/6 mice
Experimental: The animals used were C57BC/6 mice, all of the same sex, weighing a minimum of 17 g and all within a 3 g weight range. There were normally 10 animals per test group. A 1.0 g portion of melanotic melanoma B16 tumor was homogenized in 10 ml of cold balanced salt solution and a 0.5 ml aliquot of the homogenate was implanted intraperitoneally into each of the test mice. The test compounds were administered intraperitoneally on days one through nine (relative to tumor inoculation) at various doses. The animals were weighed and survivors recorded on a regular basis for 60 days. The median survival time and the ratio of survival time for treated (T)/control (C) animals were calculated. The positive control compound was 1,4-dihydroxy-5,8-bis[[2-(2-hydroxyethylamino)-ethyl]amino]anthraquinone, dihydrochloride (U.S. Patent 4,197,249) given at the indicated doses by injection.

[3] = Dose 0.2 mg/kg intraperitoneally on days 1, 5 and 9
[4] = Dose 0.8 mg/kg intraperitoneally on days 1, 5 and 9
[5] = Dose 3 mg/kg intraperitoneally on days 1, 5 and 9
[6] = Dose 12 mg/kg intraperitoneally on days 1, 5 and 9
[7] = Dose 50 mg/kg intraperitoneally on days 1, 5 and 9
[8] = Dose 1.5 mg/kg intraperitoneally on days one through nine
[9] = Dose 6 mg/kg intraperitoneally on days one through nine
[10] = Dose 25 mg/kg intraperitoneally on days one through nine
[11] = Dose 100 mg/kg intraperitoneally on days one through nine

SMILES: CCOC(=O)NCCNc1ccc(NCCNC(=O)OCC)c2c1C(=O)c1c(O)ccc(O)c1C2=O [[(9,10-Dihydro-5,8-dihydroxy-9,10-dioxo-1,4 anthracenediyl)bis(imino-2,1-ethanediyl)]bis-[carbamic acid]diethyl ester]
- Median Survival [1, 3]: 11 days
- T/C x 100 (%) [1, 3]: 110%
- Median Survival [1, 4]: 14 days
- T/C x 100 (%) [1, 4]: 140%
- Median Survival [1, 5]: 17 days
- T/C x 100 (%) [1, 5]: 170%
- Median Survival [1, 6]: 21 days
- T/C x 100 (%) [1, 6]: 210%
- Median Survival [1, 7]: 21.5 days
- T/C x 100 (%) [1, 7]: 215%
- Median Survival [2, 8]: 29.5 days
- T/C x 100 (%) [2, 8]: 156%
- Median Survival [2, 9]: 39.5 days
- T/C x 100 (%) [2, 9]: 209%
- Median Survival [2, 10]: >60 days
- T/C x 100 (%) [2, 10]: >317%
- Median Survival [2, 11]: 38.5 days
- T/C x 100 (%) [2, 11]: 204%
